Values after ≈ are worked out from the molar mass of the structure shown. Active and inactive are the calls of the source. No cut-off for these calls is given here.
Key:
Bacillus pumilus [1] = assay: Antibacterial activity against Bacillus pumilus MTCC 1456 assessed as growth inhibition at 1000 ug/mL after 48 hr by agar diffusion method; assay type: functional; conditions: MTCC 1456, 48 h, read-out: DIZ
Escherichia coli [2] = assay: Antibacterial activity against Escherichia coli MTCC 1573 assessed as growth inhibition at 1000 ug/mL after 48 hr by agar diffusion method; assay type: functional; conditions: MTCC 1573, 48 h, read-out: DIZ
Pseudomonas fluorescens [3] = assay: Antibacterial activity against Pseudomonas fluorescens MTCC 2421 assessed as growth inhibition at 1250 ug/mL after 48 hr by agar diffusion method; assay type: functional; conditions: MTCC 2421, 48 h, read-out: DIZ
Bacillus pumilus [4] = assay: Antibacterial activity against Bacillus pumilus MTCC 1456 assessed as growth inhibition at 500 ug/mL after 48 hr by agar diffusion method; assay type: functional; conditions: MTCC 1456, 48 h, read-out: DIZ
Micrococcus luteus [5] = assay: Antibacterial activity against Micrococcus luteus MTCC 1538 assessed as growth inhibition after 24 hr by tube dilution method; assay type: functional; conditions: MTCC 1538, 24 h
Staphylococcus aureus [6] = assay: Antibacterial activity against Staphylococcus aureus MTCC 1430 assessed as growth inhibition after 24 hr by tube dilution method; assay type: functional; conditions: MTCC 1430, 24 h
Escherichia coli [7] = assay: Antibacterial activity against Escherichia coli MTCC 1573 assessed as growth inhibition after 24 hr by tube dilution method; assay type: functional; conditions: MTCC 1573, 24 h
Bacillus pumilus [8] = assay: Antibacterial activity against Bacillus pumilus MTCC 1456 assessed as growth inhibition at 250 ug/mL after 48 hr by agar diffusion method; assay type: functional; conditions: MTCC 1456, 48 h, read-out: DIZ
Aspergillus niger [9] = assay: Antifungal activity against Aspergillus niger MTCC 2546 assessed as growth inhibition after 24 hr by tube dilution method; assay type: functional; conditions: MTCC 2546, 24 h
Bacillus subtilis [10] = assay: Antibacterial activity against Bacillus subtilis MTCC 441 assessed as growth inhibition at 1000 ug/mL after 48 hr by agar diffusion method; assay type: functional; conditions: MTCC 441, 48 h, read-out: DIZ
Penicillium chrysogenum [11] = assay: Antifungal activity against Penicillium chrysogenum MTCC 161 assessed as growth inhibition at 100 ug/mL after 48 hr by agar diffusion method; assay type: functional, organism-based
Escherichia coli [12] = assay: Antibacterial activity against Escherichia coli MTCC 1573 assessed as growth inhibition at 500 ug/mL after 48 hr by agar diffusion method; assay type: functional; conditions: MTCC 1573, 48 h, read-out: DIZ
Aspergillus niger [13] = assay: Antifungal activity against Aspergillus niger MTCC 2546 assessed as growth inhibition at 750 ug/mL after 48 hr by agar diffusion method; assay type: functional; conditions: MTCC 2546, 48 h, read-out: DIZ
Aspergillus niger [14] = assay: Antifungal activity against Aspergillus niger MTCC 2546 assessed as growth inhibition at 250 ug/mL after 48 hr by agar diffusion method; assay type: functional; conditions: MTCC 2546, 48 h, read-out: DIZ
Bacillus pumilus [15] = assay: Antibacterial activity against Bacillus pumilus MTCC 1456 assessed as growth inhibition at 1250 ug/mL after 48 hr by agar diffusion method; assay type: functional; conditions: MTCC 1456, 48 h, read-out: DIZ
Pseudomonas fluorescens [16] = assay: Antibacterial activity against Pseudomonas fluorescens MTCC 2421 assessed as growth inhibition after 24 hr by tube dilution method; assay type: functional; conditions: MTCC 2421, 24 h
Penicillium chrysogenum [17] = assay: Antifungal activity against Penicillium chrysogenum MTCC 161 assessed as growth inhibition at 1250 ug/mL after 48 hr by agar diffusion method; assay type: functional; conditions: MTCC 161, 48 h, read-out: DIZ
Bacillus subtilis [18] = assay: Antibacterial activity against Bacillus subtilis MTCC 441 assessed as growth inhibition at 1250 ug/mL after 48 hr by agar diffusion method; assay type: functional; conditions: MTCC 441, 48 h, read-out: DIZ
Bacillus subtilis [19] = assay: Antibacterial activity against Bacillus subtilis MTCC 441 assessed as growth inhibition at 100 ug/mL after 48 hr by agar diffusion method; assay type: functional
Pseudomonas aeruginosa [20] = assay: Antibacterial activity against Pseudomonas aeruginosa MTCC 424 assessed as growth inhibition at 750 ug/mL after 48 hr by agar diffusion method; assay type: functional; conditions: MTCC 424, 48 h, read-out: DIZ
Aspergillus niger [21] = assay: Antifungal activity against Aspergillus niger MTCC 2546 assessed as growth inhibition at 1000 ug/mL after 48 hr by agar diffusion method; assay type: functional; conditions: MTCC 2546, 48 h, read-out: DIZ
Pseudomonas aeruginosa [22] = assay: Antibacterial activity against Pseudomonas aeruginosa MTCC 424 assessed as growth inhibition at 100 ug/mL after 48 hr by agar diffusion method; assay type: functional; conditions: MTCC 424, 48 h, read-out: DIZ
Pseudomonas aeruginosa [23] = assay: Antibacterial activity against Pseudomonas aeruginosa MTCC 424 assessed as growth inhibition after 24 hr by tube dilution method; assay type: functional; conditions: MTCC 424, 24 h
Micrococcus luteus [24] = assay: Antibacterial activity against Micrococcus luteus MTCC 1538 assessed as growth inhibition at 250 ug/mL after 48 hr by agar diffusion method; assay type: functional; conditions: MTCC 1538, 48 h, read-out: DIZ
Escherichia coli [25] = assay: Antibacterial activity against Escherichia coli MTCC 1573 assessed as growth inhibition at 750 ug/mL after 48 hr by agar diffusion method; assay type: functional; conditions: MTCC 1573, 48 h, read-out: DIZ
Escherichia coli [26] = assay: Antibacterial activity against Escherichia coli MTCC 1573 assessed as growth inhibition at 100 ug/mL after 48 hr by agar diffusion method; assay type: functional
Pseudomonas fluorescens [27] = assay: Antibacterial activity against Pseudomonas fluorescens MTCC 2421 assessed as growth inhibition at 500 ug/mL after 48 hr by agar diffusion method; assay type: functional; conditions: MTCC 2421, 48 h, read-out: DIZ
Aspergillus niger [28] = assay: Antifungal activity against Aspergillus niger MTCC 2546 assessed as growth inhibition at 500 ug/mL after 48 hr by agar diffusion method; assay type: functional; conditions: MTCC 2546, 48 h, read-out: DIZ
Bacillus pumilus [29] = assay: Antibacterial activity against Bacillus pumilus MTCC 1456 assessed as growth inhibition after 24 hr by tube dilution method; assay type: functional; conditions: MTCC 1456, 24 h
Pseudomonas fluorescens [30] = assay: Antibacterial activity against Pseudomonas fluorescens MTCC 2421 assessed as growth inhibition at 100 ug/mL after 48 hr by agar diffusion method; assay type: functional; conditions: MTCC 2421, 48 h, read-out: DIZ
Micrococcus luteus [31] = assay: Antibacterial activity against Micrococcus luteus MTCC 1538 assessed as growth inhibition at 1250 ug/mL after 48 hr by agar diffusion method; assay type: functional; conditions: MTCC 1538, 48 h, read-out: DIZ
Bacillus pumilus [32] = assay: Antibacterial activity against Bacillus pumilus MTCC 1456 assessed as growth inhibition at 100 ug/mL after 48 hr by agar diffusion method; assay type: functional; conditions: MTCC 1456, 48 h, read-out: DIZ
Pseudomonas aeruginosa [33] = assay: Antibacterial activity against Pseudomonas aeruginosa MTCC 424 assessed as growth inhibition at 250 ug/mL after 48 hr by agar diffusion method; assay type: functional; conditions: MTCC 424, 48 h, read-out: DIZ
Micrococcus luteus [34] = assay: Antibacterial activity against Micrococcus luteus MTCC 1538 assessed as growth inhibition at 750 ug/mL after 48 hr by agar diffusion method; assay type: functional; conditions: MTCC 1538, 48 h, read-out: DIZ
Micrococcus luteus [35] = assay: Antibacterial activity against Micrococcus luteus MTCC 1538 assessed as growth inhibition at 500 ug/mL after 48 hr by agar diffusion method; assay type: functional; conditions: MTCC 1538, 48 h, read-out: DIZ
Escherichia coli [36] = assay: Antibacterial activity against Escherichia coli MTCC 1573 assessed as growth inhibition at 250 ug/mL after 48 hr by agar diffusion method; assay type: functional; conditions: MTCC 1573, 48 h, read-out: DIZ
Bacillus subtilis [37] = assay: Antibacterial activity against Bacillus subtilis MTCC 441 assessed as growth inhibition at 250 ug/mL after 48 hr by agar diffusion method; assay type: functional; conditions: MTCC 441, 48 h, read-out: DIZ
Penicillium chrysogenum [38] = assay: Antifungal activity against Penicillium chrysogenum MTCC 161 assessed as growth inhibition after 24 hr by tube dilution method; assay type: functional; conditions: MTCC 161, 24 h
Staphylococcus aureus [39] = assay: Antibacterial activity against Staphylococcus aureus MTCC 1430 assessed as growth inhibition at 500 ug/mL after 48 hr by agar diffusion method; assay type: functional; conditions: MTCC 1430, 48 h, read-out: DIZ

In the case of `O=C1CSC(c2ccccn2)N1c1nnc2c3cc(Cl)ccc3nc-2s1` (centres undefined), the zone of inhibition at 1000 µg/mL (Bacillus pumilus [1]) is reported as 20 mm, the zone of inhibition at 1000 µg/mL (Escherichia coli [2]) is reported as 20 mm and the zone of inhibition at 1250 µg/mL (Pseudomonas fluorescens [3]) is reported as 21 mm. The zone of inhibition at 500 µg/mL (Bacillus pumilus [4]) was 15 mm, the MIC (Micrococcus luteus [5]) was 250 µg/mL (≈ 625 µM) and the MIC (Staphylococcus aureus [6]) was 250 µg/mL (≈ 625 µM). For the same molecule, the MIC (Escherichia coli [7]) was 150 µg/mL (≈ 375 µM), the zone of inhibition at 250 µg/mL (Bacillus pumilus [8]) was 13 mm and the MIC (Aspergillus niger [9]) was 200 µg/mL (≈ 500 µM). The zone of inhibition at 1000 µg/mL (Bacillus subtilis [10]) was 19 mm, the “growth inhibition (GI)” value (Penicillium chrysogenum [11]) was “inactive” and the zone of inhibition at 500 µg/mL (Escherichia coli [12]) was 12 mm. The zone of inhibition at 750 µg/mL (Aspergillus niger [13]) was 15 mm, the zone of inhibition at 250 µg/mL (Aspergillus niger [14]) was 9 mm and the zone of inhibition at 1250 µg/mL (Bacillus pumilus [15]) was 23 mm. It also gave an MIC (Pseudomonas fluorescens [16]) of 50 µg/mL (≈ 125 µM), a zone of inhibition at 1250 µg/mL (Penicillium chrysogenum [17]) of 20 mm and a zone of inhibition at 1250 µg/mL (Bacillus subtilis [18]) of 22 mm. For the same molecule, the “growth inhibition (GI)” value (Bacillus subtilis [19]) was “inactive”, the zone of inhibition at 750 µg/mL (Pseudomonas aeruginosa [20]) was 15 mm and the zone of inhibition at 1000 µg/mL (Aspergillus niger [21]) was 18 mm. It also gave a zone of inhibition at 100 µg/mL (Pseudomonas aeruginosa [22]) of 7 mm, an MIC (Pseudomonas aeruginosa [23]) of 30 µg/mL (≈ 75 µM) and a zone of inhibition at 250 µg/mL (Micrococcus luteus [24]) of 7 mm. The zone of inhibition at 750 µg/mL (Escherichia coli [25]) was 15 mm, the “growth inhibition (GI)” value (Escherichia coli [26]) was “inactive” and the zone of inhibition at 500 µg/mL (Pseudomonas fluorescens [27]) was 11 mm. It also gave a zone of inhibition at 500 µg/mL (Aspergillus niger [28]) of 12 mm, an MIC (Bacillus pumilus [29]) of 50 µg/mL (≈ 125 µM) and a zone of inhibition at 100 µg/mL (Pseudomonas fluorescens [30]) of 7 mm. It also gave a zone of inhibition at 1250 µg/mL (Micrococcus luteus [31]) of 19 mm, a zone of inhibition at 100 µg/mL (Bacillus pumilus [32]) of 10 mm and a zone of inhibition at 250 µg/mL (Pseudomonas aeruginosa [33]) of 10 mm. The zone of inhibition at 750 µg/mL (Micrococcus luteus [34]) was 12 mm, the zone of inhibition at 500 µg/mL (Micrococcus luteus [35]) was 8 mm and the zone of inhibition at 250 µg/mL (Escherichia coli [36]) was 11 mm. The zone of inhibition at 250 µg/mL (Bacillus subtilis [37]) was 7 mm, the MIC (Penicillium chrysogenum [38]) was 200 µg/mL (≈ 500 µM) and the zone of inhibition at 500 µg/mL (Staphylococcus aureus [39]) was 9 mm.
